Measured values as given in patent US20260124184A1, “ONCE DAILY ALDOSTERONE SYNTHASE INHIBITOR (R)-(+)-5-(P-CYANOPHENYL)-5,6,7,8-TETRAHYDROIMIDAZO[L,5-A]PYRIDINE” (priority 2022, published 2026).
Read-outs that look alike come from different tables or passages of the source.

Assays:
[1] = tested on: patients with primary aldosteronism
Method: (§1) A double-blind, randomized, Phase 2 trial was conducted between November 2019 and June 2022 at 11 centres in Italy, Switzerland and the Netherlands (NCT04007406). […] Patients requiring fixed-dose antihypertensive therapy continued treatment throughout the study; steroid therapies, β-adrenergic and renin-angiotensin-aldosterone system blockers were not permitted. At 14-day intervals, office blood pressures were recorded and blood samples were taken for measurement of steroid and peptide hormones and electrolytes at a central laboratory.
Blood pressure and pulse rate were measured at each visit after a >15-minute rest in sitting position. Blood pressure and pulse rate were measured using a locally calibrated and validated automated oscillometric device (e.g., Omron Healthcare). An adapted wrap cuff was placed on the dominant arm. Three repeat measurements with a 10-minute interval were recorded; the average of the 2nd and 3rd measurements were study relevant.
For all efficacy endpoints, changes from baseline were calculated from linear models and accompanied by 95% confidence intervals and p values. Log-transformed values were used for changes in ARR. The full analysis set (FAS) and safety set were defined as all randomized patients who received at least one dose of study drug.

[2] = tested on: patients with primary aldosteronism; remark: listed apart in the source
Method: as §1
The urinary content of tetrahydroaldosterone (THA) was measured centrally by gas chromatography-coupled mass spectrometry (GC-MS).

[3] = 4 mg once daily, n=10, Day 1 (baseline)
[4] = 4 mg once daily, n=10, Day 70 (after placebo withdrawal)
[5] = 8 mg once daily, n=12, Day 1 (baseline)
[6] = 8 mg once daily, n=12, Day 70 (after placebo withdrawal)
[7] = 12 mg once daily, n=13, Day 1 (baseline)

(R)-(+)-5-(p-cyanophenyl)-5,6,7,8-tetrahydroimidazolium[1,5-a]pyridine dihydrogen phosphate [dexfadrostat phosphate]
office blood pressure (oSBP), mean [1, 3]: 146.95 mmHg | office blood pressure (oSBP), median [1, 3]: 144.00 mmHg | office blood pressure (oSBP), mean ([1]; 4 mg once daily, n=10, Day 14): 134.55 mmHg | office blood pressure (oSBP), median ([1]; 4 mg once daily, n=10, Day 14): 136.25 mmHg | office blood pressure (oSBP), mean ([1]; 4 mg once daily, n=10, Day 28): 133.70 mmHg | office blood pressure (oSBP), median ([1]; 4 mg once daily, n=10, Day 28): 130.50 mmHg | office blood pressure (oSBP), mean ([1]; 4 mg once daily, n=10, Day 42): 134.90 mmHg | office blood pressure (oSBP), median ([1]; 4 mg once daily, n=10, Day 42): 132.75 mmHg | office blood pressure (oSBP), mean ([1]; 4 mg once daily, n=10, Day 56): 133.00 mmHg | office blood pressure (oSBP), median ([1]; 4 mg once daily, n=10, Day 56): 133.75 mmHg | office blood pressure (oSBP), mean [1, 4]: 142.20 mmHg | office blood pressure (oSBP), median [1, 4]: 145.25 mmHg | office blood pressure (oSBP), mean [1, 5]: 148.00 mmHg | office blood pressure (oSBP), median [1, 5]: 147.00 mmHg | office blood pressure (oSBP), mean ([1]; 8 mg once daily, n=12, Day 14): 137.88 mmHg | office blood pressure (oSBP), median ([1]; 8 mg once daily, n=12, Day 14): 137.50 mmHg | office blood pressure (oSBP), mean ([1]; 8 mg once daily, n=12, Day 28): 135.08 mmHg | office blood pressure (oSBP), median ([1]; 8 mg once daily, n=12, Day 28): 133.25 mmHg | office blood pressure (oSBP), mean ([1]; 8 mg once daily, n=12, Day 42): 137.83 mmHg | office blood pressure (oSBP), median ([1]; 8 mg once daily, n=12, Day 42): 134.50 mmHg | office blood pressure (oSBP), mean ([1]; 8 mg once daily, n=12, Day 56): 134.42 mmHg | office blood pressure (oSBP), median ([1]; 8 mg once daily, n=12, Day 56): 135.75 mmHg | office blood pressure (oSBP), mean [1, 6]: 142.46 mmHg | office blood pressure (oSBP), median [1, 6]: 139.75 mmHg | office blood pressure upon drug withdrawal ([1]; Day 70, after 14-day placebo withdrawal): blood pressure values returned towards baseline levels | effect on office blood pressure ([1]; each dose arm, sustained over active treatment period): rapid and significant (p≤0.001) decrease in office blood pressure | change in urine THA content from baseline to Day 56, mean ([2]; 4 mg once daily, n=10): −66.90 24 μg/24-hour | change in urine THA content from baseline to Day 56, median ([2]; 4 mg once daily, n=10): −61.00 24 μg/24-hour | urine tetrahydroaldosterone (THA) content, mean [2, 3]: 78.90 24 μg/24-hour | urine tetrahydroaldosterone (THA) content, median [2, 3]: 80.00 24 μg/24-hour | urine tetrahydroaldosterone (THA) content, mean ([2]; 4 mg once daily, n=10, Day 56): 12.00 24 μg/24-hour | urine tetrahydroaldosterone (THA) content, median ([2]; 4 mg once daily, n=10, Day 56): 11.50 24 μg/24-hour | change in urine THA content from baseline to Day 56, mean ([2]; 8 mg once daily, n=12): −63.00 24 μg/24-hour | change in urine THA content from baseline to Day 56, median ([2]; 8 mg once daily, n=12): −50.00 24 μg/24-hour | urine tetrahydroaldosterone (THA) content, mean [2, 5]: 71.67 24 μg/24-hour | urine tetrahydroaldosterone (THA) content, median [2, 5]: 59.50 24 μg/24-hour | urine tetrahydroaldosterone (THA) content, mean ([2]; 8 mg once daily, n=12, Day 56): 8.67 24 μg/24-hour | urine tetrahydroaldosterone (THA) content, median ([2]; 8 mg once daily, n=12, Day 56): 5.00 24 μg/24-hour | change in urine THA content from baseline to Day 56, mean ([2]; 12 mg once daily, n=13): −58.31 24 μg/24-hour | change in urine THA content from baseline to Day 56, median ([2]; 12 mg once daily, n=13): −66.00 24 μg/24-hour | urine tetrahydroaldosterone (THA) content, mean [2, 7]: 67.38 24 μg/24-hour | urine tetrahydroaldosterone (THA) content, median [2, 7]: 69.00 24 μg/24-hour | urine tetrahydroaldosterone (THA) content, mean ([2]; 12 mg once daily, n=13, Day 56): 9.08 24 μg/24-hour | urine tetrahydroaldosterone (THA) content, median ([2]; 12 mg once daily, n=13, Day 56): 5.00 24 μg/24-hour | effect on urinary tetrahydroaldosterone content ([2]; all three doses, 24-hour urine at end of active treatment vs baseline): significant reductions (p<0.0001) in tetrahydroaldosterone (THA) content | urine aldosterone content, mean ([2]; baseline urine aldosterone 10-50 μg/24-hour, 4 mg QD, Day 1 (baseline)): 26 μg/24-hour | urine aldosterone content, mean ([2]; baseline urine aldosterone 10-50 μg/24-hour, 4 mg QD, Day 56): 6 μg/24-hour | urine aldosterone content, mean ([2]; baseline urine aldosterone 10-50 μg/24-hour, 8 mg QD, Day 1 (baseline)): 33 μg/24-hour | urine aldosterone content, mean ([2]; baseline urine aldosterone 10-50 μg/24-hour, 8 mg QD, Day 56): 8 μg/24-hour | urine aldosterone content, mean ([2]; baseline urine aldosterone 10-50 μg/24-hour, 12 mg QD, Day 1 (baseline)): 29 μg/24-hour | urine aldosterone content, mean ([2]; baseline urine aldosterone 10-50 μg/24-hour, 12 mg QD, Day 56): 3 μg/24-hour | urine aldosterone content, mean ([2]; baseline urine aldosterone 50-100 μg/24-hour, 4 mg QD, Day 1 (baseline)): 74 μg/24-hour | urine aldosterone content, mean ([2]; baseline urine aldosterone 50-100 μg/24-hour, 4 mg QD, Day 56): 15 μg/24-hour | urine aldosterone content, mean ([2]; baseline urine aldosterone 50-100 μg/24-hour, 8 mg QD, Day 1 (baseline)): 69 μg/24-hour | urine aldosterone content, mean ([2]; baseline urine aldosterone 50-100 μg/24-hour, 8 mg QD, Day 56): 5 μg/24-hour | urine aldosterone content, mean ([2]; baseline urine aldosterone 50-100 μg/24-hour, 12 mg QD, Day 1 (baseline)): 68 μg/24-hour | urine aldosterone content, mean ([2]; baseline urine aldosterone 50-100 μg/24-hour, 12 mg QD, Day 56): 12 μg/24-hour | urine aldosterone content, mean ([2]; baseline urine aldosterone 100-250 μg/24-hour, 4 mg QD, Day 1 (baseline)): 123 μg/24-hour
